{
  "source": "patent US20180153826A1",
  "about": "“MATERIALS AND METHODS FOR THE TREATMENT OF CYSTIC FIBROSIS” (UNIVERSITY OF FLORIDA RESEARCH FOUNDATION, INC., priority 2015, published 2018)",
  "key": {"[1]": {"system": "cAMP-dependent HCO3^− secretion", "assay": "Cyclic nucleotide (cAMP)-dependent HCO3^− secretion, lumen Cl^−/SCFA-free", "design": "species or system rat", "settings": "luminal; glibenclamide 100 μM, GlyH-101 10 μM, NPPB 100 μM (data not shown)", "method": "Stripped mucosal sheets were mounted into Ussing chambers (window area=0.3-0.5 cm^2, Physiologic Instruments, San Diego, Calif.). The mucosal side of tissue was bathed with an unbuffered HCO3^--free Cl^- Ringer solution (see Table 2 for detailed composition) circulated by a gas lift with 100% O2 while the serosal side was bathed with buffered Cl^- Ringer solution (pH 7.4) that contained 25 mM HCO3^- and gassed with 5% CO2/95% O2. Each side contained 3-5 ml of solution and the temperature of the solution was adjusted to and maintained at 37° C. by heated water-jacketed reservoirs. Experiments were performed under short-circuit conditions (Voltage-Current Clamp, VCC MC8; Physiologic Instruments, San Diego, Calif.) to maintain the transepithelial potentials at 0 mV, except for brief interruption at 20-second intervals for recording of open-circuit potential (VT, mV). Two types of approaches were used in the measurement of colonic HCO3^- secretion, namely, measurement of lumen pH or pH stat titration of net alkalinization by colonic mucosa. […] Radiometer Analytical, Villeurbanne, France). The amount of the acid delivered per unit time per surface area was used to quantitate HCO3^- secretion by the mucosa. Measurements were recorded continuously and mean values for consecutive 5 or 10 min periods were averaged. […] The short-circuit current (Isc) was measured in microamperes (μA) and converted into μEq/hr/cm^2. Tissue resistance (R, Ω cm^2) was calculated from Ohm's law. Colon segments were prepared and treated as in the secretagogue-induced HCO3^- secretion experiments except that they were bathed luminally with HCO3^--free Ringer solution that contained no isobutyrate and no Cl^-. Cyclic nucleotide-dependent HCO3^- secretion was calculated as […] (the difference between JHCO3 after minus JHCO3 before the addition of forskolin). When inhibitor was used, it was added at 30 min before […] or forskolin."}, "distal colonic mucosa": {"system": "distal colonic mucosa", "assay": "Lumen alkalinization response to [Ca^2+]o (lumen pH, Ussing chamber)", "design": "species or system rat", "settings": "for lumen alkalinization rate: mean±SE, n=3", "method": "Experiments were performed using non-fasting male Sprague-Dawley rats and C57BL/6 mice. Rats weighting 100-400 g were obtained from Charles River Laboratories. Mice lacking CaSR expression in intestinal epithelial cells (CaSR^−/−) and their CaSR^+/+ littermates were bred and maintained. CaSR^−/− mice were generated as previously described. Briefly, CaSR flox/flox mice were bred with transgenic mice expressing Cre Recombinase under the control of the villin 1 promoter and genotyped prior to all experiments after an approximate 10-12 generations. Mice were used at 5-10 weeks of age. Animals were fed and maintained on regular chow (Harlan) with free access to water before sacrifice. Animals were sacrificed with standard CO2 inhalation followed by cervical dislocation. The colons were isolated, cut open along the mesenteric border into a flat sheet, and flushed with ice-cold Ringer solutions. Mucosa from the distal colon were carefully hand-stripped off of serosal, muscular and submucosal layers as described and a pair of adjacent mucosal segments were incised and mounted into Ussing chambers. In some experiments, stripped mucosa was incised longitudinally into two equal pieces in order to facilitate comparisons between control and treatment. Short-circuit current and transepithelial resistance differences between these two adjacent tissues were less than 15%.\n(§1) Stripped mucosal sheets were mounted into Ussing chambers (window area=0.3-0.5 cm^2, Physiologic Instruments, San Diego, Calif.). The mucosal side of tissue was bathed with an unbuffered HCO3^−-free Cl^− Ringer solution (see Table 2 for detailed composition) circulated by a gas lift with 100% O2 while the serosal side was bathed with buffered Cl^− Ringer solution (pH 7.4) that contained 25 mM HCO3^− and gassed with 5% CO2/95% O2. Each side contained 3-5 ml of solution and the temperature of the solution was adjusted to and maintained at 37° C. by heated water-jacketed reservoirs. Experiments were performed under short-circuit conditions (Voltage-Current Clamp, VCC MC8; Physiologic Instruments, San Diego, Calif.) to maintain the transepithelial potentials at 0 mV, except for brief interruption at 20-second intervals for recording of open-circuit potential (VT, mV).\n(§2) Two types of approaches were used in the measurement of colonic HCO3^− secretion, namely, measurement of lumen pH or pH stat titration of net alkalinization by colonic mucosa. […] The amount of the acid delivered per unit time per surface area was used to quantitate HCO3^− secretion by the mucosa. Measurements were recorded continuously and mean values for consecutive 5 or 10 min periods were averaged. The rate of HCO3^− secretion (JHCO3) is expressed as μEq/hr/cm^2. The short-circuit current (Isc) was measured in microamperes (μA) and converted into μEq/hr/cm^2. Tissue resistance (R, Ω cm^2) was calculated from Ohm's law.\nTwo equal pieces of mucosa from each colon that were obtained by longitudinal division along the antimessenteric border were mounted into two Ussing chambers. […] After 15 to 30 min, when stabilization was achieved and basal lumen pH recordings performed, HCO3^−-free Ringer solution in the serosal side was replaced by 25 mM HCO3-containing Ringer solution, and changes in lumen pH were monitored and recorded for 15 to 30 min. […]"}, "ENaC": {"system": "ENaC", "assay": "ENaC activity as amiloride-sensitive bumetanide-insensitive Isc, weanling distal colon", "design": "species or system rat", "settings": "2.5% w/w added to diet vs normal 1%; 3 week old rats, distal colon", "method": "FIG. 17. The inhibitory effect of […] on ENaC was examined electrophysiologically by measuring amiloride-sensitive short-circuit current responses in the presence or absence of […]. Weanling infant distal colonic mucosa, which expresses highest activity of ENaC, is employed and mounted in Ussing chamber. FIGS. 19A-19C. […] Here, the activity of ENaC is measured as amiloride-sensitive bumetanide-insensitive Isc. […] FIGS. 20A-20C. […] The activity of ENaC was measured as amiloride-sensitive bumetanide-insensitive Isc. […] Secretory Cl current is mediated by apical CFTR. This Cl secretory Isc is sensitive to bumetanide, applied to the basolateral side of the epithelium. There, bumetanide inhibits Cl entry from blood into the cell; thus, in the presence of bumetanide, the secretory Cl current is eliminated. Absorptive Na current is mediated by apically located epithelial Na channel (ENaC). This latter current is particularly high in this weanling age and is sensitive to amiloride, when it is applied luminally."}, "[2]": {"system": "Cl^− secretion induced by forskolin", "settings": "rat distal colon; cited from earlier work"}, "[3]": {"system": "CFTR-mediated and non CFTR-mediated HCO3^− secretion", "assay": "Isc and pH stat HCO3^− secretion with/without lumen Cl^−, CFTR inhibitors or DIDS (FIGS. 5, 6)", "settings": "R568 response", "excerpt": "FIG. 3. Experimental approach 1: The Ussing chamber pH-stat set up used to monitor and measure HCO3^- secretion by colonic mucosa. FIG. 4. Experimental Approach 2: Measurement of HCO3^- secretion by colonic mucosa in the presence of apical NPPB/Glibenclamide. FIGS. 5A-5F. Activation of CaSR by […] inhibits CFTR-mediated HCO3^- secretion (JHCO3) and ISC but stimulates non CFTR-mediated HCO3^- secretion (JHCO3) and Isc. Physiological approach assayed with, versus without, lumen Cl^-. FIGS. 6A-6F. Activation of CaSR by […] inhibits CFTR-mediated HCO3^- secretion (JHCO3) and ISC but stimulates CFTR-independent HCO3^- secretion (JHCO3) and Isc. Pharmacological approach assayed with, and without, CFTR transporter inhibitors or AE inhibitor DIDS."}, "Cl^−/HCO3^− exchange": {"system": "Cl^−/HCO3^− exchange", "assay": "Cl^−/HCO3^− exchange activity (Cl^−-dependent HCO3^− secretion)", "design": "species or system rat", "settings": "pretreatment, 100 μM, lumen side (data not shown)", "method": "as §1, with “Experiments were performed under short-circuit conditions (Voltage-Current Clamp, VCC MC8; Physiologic Instruments, San Diego, Calif.) to maintain the transepithelial potentials at 0 mV, except for brief interruption at 20-second intervals for recording of open-circuit potential (VT, mV).” left out\nas §2, with “law. […]” for “law.”"}},
  "data": [
    {"smiles": "O=C(O)c1cc([N+](=O)[O-])ccc1NCCCc1ccccc1", "note": "[NPPB, 5-nitro-2-(3-phenylpropylamino)benzoic acid]", "values": [
      {"measurement": "effect of pretreatment on forskolin stimulatory and R568 inhibitory effects on Isc", "setting": "[1]", "value": "abolished"}
    ]},
    {"smiles": "O=C(CNc1ccc2ccccc2c1)N/N=C/c1cc(Br)c(O)c(Br)c1O", "note": "[GlyH-101]", "values": [
      {"measurement": "effect of pretreatment on forskolin stimulatory and R568 inhibitory effects on Isc", "setting": "[1]", "value": "abolished"}
    ]},
    {"smiles": "C[N+](C)(C)CCOC(N)=O", "note": "[Carbachol]", "values": [
      {"measurement": "lumen pH response", "setting": "distal colonic mucosa; 100 μM, serosa, positive control", "value": "initial transient increase followed by a sustained increase in lumen pH"}
    ]},
    {"smiles": "[Ca+2]", "note": "[Ca^2+]", "values": [
      {"measurement": "basal Isc", "setting": "distal colonic mucosa; 0.5 mM [Ca^2+]o", "value": "1.44±0.32", "unit": "μEq/hr/cm^2"},
      {"measurement": "basal Isc", "setting": "distal colonic mucosa; 1.2 mM [Ca^2+]o", "value": "1.10±0.10", "unit": "μEq/hr/cm^2"},
      {"measurement": "lumen alkalinization rate", "setting": "distal colonic mucosa; [Ca^2+]o = 0.5 mM", "value": "0.013±0.002", "unit": "pH unit/min/cm^2"},
      {"measurement": "lumen alkalinization rate", "setting": "distal colonic mucosa; [Ca^2+]o = 1.2 mM", "value": "0.031±0.002", "unit": "pH unit/min/cm^2"},
      {"measurement": "amiloride-sensitive ENaC-mediated basal Isc", "setting": "ENaC", "value": "suppressed"}
    ]},
    {"smiles": "CCCCNc1cc(C(=O)O)cc(S(N)(=O)=O)c1Oc1ccccc1", "note": "[Bumetanide]", "values": [
      {"measurement": "inhibition of forskolin-induced Cl^− secretion", "setting": "[2]", "value": "~70", "unit": "%"}
    ]},
    {"smiles": "COc1ccc(Cl)cc1C(=O)NCCc1ccc(S(=O)(=O)NC(=O)NC2CCCCC2)cc1", "note": "[glibenclamide]", "values": [
      {"measurement": "effect of pretreatment on forskolin stimulatory and R568 inhibitory effects on Isc", "setting": "[1]", "value": "abolished"}
    ]},
    {"smiles": "O=S(=O)(O)c1cc(N=C=S)ccc1C=Cc1ccc(N=C=S)cc1S(=O)(=O)O", "note": "[DIDS, 4,4′-diisothiocyano-2,2′-stilbenedisulfonic acid]", "values": [
      {"measurement": "AE-associated current", "setting": "[3]; FIG. 6C vs. 6A", "value": "partially inhibited"},
      {"measurement": "CFTR activity (current)", "setting": "[3]; FIG. 6C vs. 6A", "value": "inhibited"},
      {"measurement": "HCO3^− secretion rate", "setting": "[3]; FIG. 6F with 6D", "value": "stimulated or did not change"},
      {"measurement": "luminal Cl^−-dependent HCO3^− secretory mechanism", "setting": "Cl^−/HCO3^− exchange", "value": "partially abolished"}
    ]}
  ]
}
